This passage reports GI50 and IC50 results from patent EP4722212A1, “NOVEL COMPOUND FOR INHIBITING PROTEIN KINASES AND PHARMACEUTICAL COMPOSITION COMPRISING SAME” (Magicbullettherapeutics Co., Ltd., priority 2023, dated 2024).

One experiment concerns C4-2B. Briefly: Cell line inhibition analysis (CCK-8, 72 h). As to conditions: read-out: Cell growth inhibition GI50 C4-2B. It counts as cell-based. How it is done:
(§1) C4-2B and 22Rv1 cells were purchased from ATCC and cultured according to the manufacturer's instructions. The cells were seeded in 96-well plates at 7×10^3cells/100 µl/well and allowed to attach for one day. After removing the culture medium, 90 µl/well of fresh culture medium was added, followed by addition of 10 µl/well of culture medium containing compounds at nine concentrations (0.076-500 µM) serially diluted 3-fold and DMSO control to achieve final concentrations of 0-50 µM, and then cultured for 72 hours in a 37 °C CO2 incubator. Cell proliferation after 72 hours was assessed by adding 10 µl/well of CCK-8 solution, orbital shaking for 30 seconds, then incubating at 37 °C CO2 incubator for 2 hours and measuring absorbance at 450 nm using a microplate reader. The measured absorbance values were corrected by subtracting the absorbance of wells containing only culture medium and CCK-8 solution, and GI50 values were calculated using GraphPad Prism 8 software.
(§2) Meanwhile, in a separate 96-well plate, cells were seeded at 7 × 10^3 cells/100 µl/well, allowed to attach for one day, CCK-8 solution was added, and absorbance was measured to establish the 'Growth (%) = 0' value.

In a further experiment the target is T1, ACK1 (Homo sapiens, UniProt Q07912).
T1 construct: purchased Reaction Biology (RBC)
Briefly: Enzyme activity inhibition (Reaction Biology). It counts as biochemical. The method, then:
(§3) [* <10 nM: A, <100 nM: B, >100 nM: C]. [Table 7]

In a further experiment the target is T2, BMX (Homo sapiens, UniProt P51813).
T2 construct: purchased Reaction Biology (RBC)
T2 sequence (P51813 1-675): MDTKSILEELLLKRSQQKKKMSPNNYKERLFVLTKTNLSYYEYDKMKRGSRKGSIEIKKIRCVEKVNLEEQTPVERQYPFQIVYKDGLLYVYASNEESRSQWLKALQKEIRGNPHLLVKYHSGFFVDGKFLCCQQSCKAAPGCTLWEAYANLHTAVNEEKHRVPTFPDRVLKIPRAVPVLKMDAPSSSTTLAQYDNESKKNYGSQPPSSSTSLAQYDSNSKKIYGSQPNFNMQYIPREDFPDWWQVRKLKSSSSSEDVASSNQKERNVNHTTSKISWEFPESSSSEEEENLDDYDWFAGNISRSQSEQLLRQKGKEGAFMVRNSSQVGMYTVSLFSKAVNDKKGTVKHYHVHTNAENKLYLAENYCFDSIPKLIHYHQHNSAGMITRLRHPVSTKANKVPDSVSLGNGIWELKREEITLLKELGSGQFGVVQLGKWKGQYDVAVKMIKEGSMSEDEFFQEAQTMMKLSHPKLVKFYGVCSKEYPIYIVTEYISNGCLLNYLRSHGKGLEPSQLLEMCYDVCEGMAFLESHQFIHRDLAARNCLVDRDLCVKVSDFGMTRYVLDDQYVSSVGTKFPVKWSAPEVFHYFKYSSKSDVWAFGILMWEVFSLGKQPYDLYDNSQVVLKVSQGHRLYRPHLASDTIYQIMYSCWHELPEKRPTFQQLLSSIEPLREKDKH
Nature of the experiment: Enzyme activity inhibition (Reaction Biology). The format is biochemical. How it is done: as §3

A further experiment concerns the target T3, Src (Homo sapiens, UniProt P12931).
T3 construct: purchased Reaction Biology (RBC)
Nature of the experiment: Enzyme activity inhibition (Reaction Biology). It counts as biochemical. How it is done: as §3

The subject of a further experiment is 22Rv1. Nature of the experiment: Cell line inhibition analysis (CCK-8, 72 h). It counts as cell-based. As to conditions: Homo sapiens; 22Rv1, 72 hours; read-out: Cell growth inhibition GI50 22Rv1. How it is done: as §1, §2
Another experiment has as its system AsPC-1. Nature of the experiment: Cell line inhibition analysis (CCK-8, 72 h). It counts as cell-based. Particulars: Homo sapiens, ASPC1; read-out: Cell growth inhibition GI50 AsPC-1. How it is done: as §1, §2
(§4) Furthermore, experiments were conducted on A172, A549, HCI-H460, AsPC-1, MIA-Paca-2, DLD-1, HCT-116, HT-29, SW480, SW620, MDA-MB-231, and SKOV3 cell lines using the same method, with results shown in Tables 9 and 10 below [* <1 µM: A, <5 µM: B, <10 µM: C, >10 µM: D].

In another experiment the test system is SW620. Briefly: Cell line inhibition analysis (CCK-8, 72 h). Particulars: Homo sapiens, SW-620; read-out: Cell growth inhibition GI50 SW620. It counts as cell-based. The method, then:
as §1, §2, §4

In the next experiment the test system is SW480. Nature of the experiment: Cell line inhibition analysis (CCK-8, 72 h). It counts as cell-based. Particulars: Homo sapiens, read-out: Cell growth inhibition GI50 SW480. The method, then:
as §1, §2, §4

The subject of a further experiment is HCT-116. Briefly: Cell line inhibition analysis (CCK-8, 72 h). The format is cell-based. Particulars: Homo sapiens, read-out: Cell growth inhibition GI50 HCT-116. How it is done: as §1, §2, §4

For orientation: GI50 means the concentration giving 50% growth inhibition. In general, IC50 refers to the concentration that inhibits the measured activity by half. A high value points to a need for much substance.

T1 sequence (Q07912 whole entry): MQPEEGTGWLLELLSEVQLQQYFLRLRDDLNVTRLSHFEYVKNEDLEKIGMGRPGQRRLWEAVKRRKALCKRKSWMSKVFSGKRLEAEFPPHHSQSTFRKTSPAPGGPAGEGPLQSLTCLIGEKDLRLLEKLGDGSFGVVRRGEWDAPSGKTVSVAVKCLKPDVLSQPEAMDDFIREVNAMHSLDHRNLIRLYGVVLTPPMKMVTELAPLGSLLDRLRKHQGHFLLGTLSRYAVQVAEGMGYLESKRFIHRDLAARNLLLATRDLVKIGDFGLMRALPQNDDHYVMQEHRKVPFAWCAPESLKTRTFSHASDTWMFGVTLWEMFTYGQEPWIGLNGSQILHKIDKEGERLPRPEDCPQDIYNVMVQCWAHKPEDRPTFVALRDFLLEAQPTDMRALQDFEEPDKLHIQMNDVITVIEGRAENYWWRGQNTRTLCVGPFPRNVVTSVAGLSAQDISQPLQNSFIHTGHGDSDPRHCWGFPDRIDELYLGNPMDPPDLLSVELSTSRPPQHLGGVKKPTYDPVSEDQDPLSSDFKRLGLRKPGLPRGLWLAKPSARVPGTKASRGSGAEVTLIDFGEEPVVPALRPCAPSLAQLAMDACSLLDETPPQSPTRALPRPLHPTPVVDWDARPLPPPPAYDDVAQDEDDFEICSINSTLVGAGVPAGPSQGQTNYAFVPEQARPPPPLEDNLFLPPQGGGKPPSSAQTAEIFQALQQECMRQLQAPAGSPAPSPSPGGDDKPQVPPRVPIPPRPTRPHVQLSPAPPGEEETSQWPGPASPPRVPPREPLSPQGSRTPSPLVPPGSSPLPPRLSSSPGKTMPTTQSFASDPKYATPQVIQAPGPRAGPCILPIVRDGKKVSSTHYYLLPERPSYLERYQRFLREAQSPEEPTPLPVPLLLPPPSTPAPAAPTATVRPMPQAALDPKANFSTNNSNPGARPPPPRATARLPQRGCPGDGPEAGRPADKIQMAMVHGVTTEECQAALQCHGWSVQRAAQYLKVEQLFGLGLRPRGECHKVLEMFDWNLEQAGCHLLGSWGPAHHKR
T3 sequence (P12931 whole entry): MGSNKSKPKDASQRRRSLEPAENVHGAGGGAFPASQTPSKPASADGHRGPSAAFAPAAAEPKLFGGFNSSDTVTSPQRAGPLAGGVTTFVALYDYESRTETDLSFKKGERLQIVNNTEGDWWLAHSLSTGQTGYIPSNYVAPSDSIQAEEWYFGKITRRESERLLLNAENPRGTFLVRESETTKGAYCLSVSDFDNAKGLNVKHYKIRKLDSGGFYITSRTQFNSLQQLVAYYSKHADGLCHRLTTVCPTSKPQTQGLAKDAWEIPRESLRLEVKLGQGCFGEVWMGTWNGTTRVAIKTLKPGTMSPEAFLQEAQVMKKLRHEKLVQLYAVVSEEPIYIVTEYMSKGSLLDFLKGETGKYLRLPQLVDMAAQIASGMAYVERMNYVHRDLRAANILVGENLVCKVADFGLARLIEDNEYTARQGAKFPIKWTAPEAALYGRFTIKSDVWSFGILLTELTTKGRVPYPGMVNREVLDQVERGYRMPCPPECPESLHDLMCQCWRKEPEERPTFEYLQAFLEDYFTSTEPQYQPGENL

As for `Cc1cc(Nc2ncc3c(n2)C2(CC2)C(=O)N(c2cc(NC(=O)c4cccc(C(F)(F)F)c4)ccc2C)C3)n(C)n1` [Compound 1, N-(3-(2'-((1,3-dimethyl-1H-pyrazol-5-yl)amino)-7'-oxo-5'H-spiro[cyclopropane-1,8'-pyrido[4,3-d]pyrimidin]-6'(7'H)-yl)-4-methylphenyl)-3-(trifluoromethyl)benzamide], the GI50 in the experiment on C4-2B was in the range of 1000 to 5000 nM. Moreover, the IC50 at ACK1, on BMX and on Src was below 10 nM in each case.

Consider `Cc1ccc(NC(=O)c2ccc(F)c(C(F)(F)F)c2)cc1N1Cc2cnc(N)nc2C2(CC2)C1=O` [Compound 4, N-(3-(2'-amino-7'-oxo-5'H-spiro[cyclopropane-1,8'-pyrido[4,3-d]pyrimidine]-6'(7'H)-yl)-4-methylphenyl)-4-fluoro-3-(trifluoromethyl)benzamide], for which the GI50 in the experiment on C4-2B and with 22Rv1 was 1000 to 5000 nM throughout.

As for `Cc1ccc(NC(=O)c2ccc(Cl)c(C(F)(F)F)c2)cc1N1Cc2cnc(N)nc2C2(CC2)C1=O` [Compound 5, N-(3-(2'-amino-7'-oxo-5'H-spiro[cyclopropane-1,8'-pyrido[4,3-d]pyrimidine]-6'(7'H)-yl)-4-methylphenyl)-4-chloro-3-(trifluoromethyl)benzamide], the GI50 in the experiment with C4-2B and in the experiment with 22Rv1 was 1000 to 5000 nM throughout.

On to `Cc1cn(-c2cc(C(=O)Nc3ccc(C)c(N4Cc5cnc(N)nc5C5(CC5)C4=O)c3)cc(C(F)(F)F)c2)cn1` [Compound 6, N-(3-(2'-amino-7'-oxo-5'H-spiro[cyclopropane-1,8'-pyrido[4,3-d]pyrimidine]-6'(7'H)-yl)-4-methylphenyl)-3-(4-methyl-1H-imidazol-1-yl)-5-(trifluoromethyl)benzamide], for which the results for the 50% growth inhibitory concentration (GI50) in the experiment on C4-2B and with 22Rv1 were 1000 to 5000 nM and below 1000 nM, respectively. Besides, the IC50 at ACK1, against BMX and on Src was below 10 nM throughout.

For `COc1cc(C(=O)Nc2ccc(C)c(N3Cc4cnc(N)nc4C4(CC4)C3=O)c2)cc(C(F)(F)F)c1` [Compound 19, N-(3-(2'-amino-7'-oxo-5'H-spiro[cyclopropane-1,8'-pyrido[4,3-d]pyrimidine]-6'(7'H)-yl)-4-methylphenyl)-3-methoxy-5-(trifluoromethyl)benzamide], the GI50 in the experiment on C4-2B and in the experiment on 22Rv1 was 1000 to 5000 nM each time. The concentration for half-maximal inhibition (IC50) on ACK1, at BMX and at Src was below 10 nM each time.

On to `COc1ccc(-c2cc(C(=O)Nc3ccc(C)c(N4Cc5cnc(N)nc5C5(CC5)C4=O)c3)cc(C(F)(F)F)c2)cc1` [Compound 20, N-(3-(2'-amino-7'-oxo-5'H-spiro[cyclopropane-1,8'-pyrido[4,3-d]pyrimidine]-6'(7'H)-yl)-4-methylphenyl)-4'-methoxy-5-(trifluoromethyl)-[1,1'-biphenyl]-3-carboxamide], for which the GI50 with C4-2B was below 1000 nM. The IC50 at ACK1, against BMX and against Src was 10 to 100 nM in each case.

As for `Cc1ccc(NC(=O)c2cc(C(F)(F)F)ccc2Cl)cc1N1Cc2cnc(N)nc2C2(CC2)C1=O` [Compound 25, N-(3-(2'-amino-7'-oxo-5'H-spiro[cyclopropane-1,8'-pyrido[4,3-d]pyrimidine]-6'(7'H)-yl)-4-methylphenyl)-2-chloro-5-(trifluoromethyl)benzamide], in the experiment on C4-2B, the GI50 was above 10000 nM. The values for the half-maximal inhibitory concentration (IC50) at ACK1, on BMX and at Src were 10 to 100 nM, above 100 nM and above 100 nM, respectively.

Regarding `Cc1ccc(NC(=O)c2cc(Cl)cc(C(F)(F)F)c2)cc1N1Cc2cnc(N)nc2C2(CC2)C1=O` [Compound 26, N-(3-(2'-amino-7'-oxo-5'H-spiro[cyclopropane-1,8'-pyrido[4,3-d]pyrimidine]-6'(7'H)-yl)-4-methylphenyl)-3-chloro-5-(trifluoromethyl)benzamide], the concentration for 50% growth inhibition (GI50) in the experiment with C4-2B and in the experiment on 22Rv1 was below 1000 nM in each case. Moreover, the figures for the IC50 on ACK1, at BMX and on Src were 10 to 100 nM, below 10 nM and below 10 nM, respectively.

As for `Cc1ccc(NC(=O)c2cc(N3CCOCC3)cc(C(F)(F)F)c2)cc1N1Cc2cnc(NC3CC3)nc2C2(CC2)C1=O` [Compound 28, N-(3-(2'-(cyclopropylamino)-7'-oxo-5'H-spiro[cyclopropane-1,8'-pyrido[4,3-d]pyrimidine]-6'(7'H)-yl)-4-methylphenyl)-3-morpholino-5-(trifluoromethyl)benzamide], the concentration for 50% growth inhibition (GI50) in the experiment with AsPC-1 is 5000 to 10000 nM; with SW620, 1000 to 5000 nM; in the experiment with SW480, 1000 to 5000 nM; in the experiment on HCT-116 it was below 1000 nM; with C4-2B, 1000 to 5000 nM. The half-maximal inhibitory concentration (IC50) was 10 to 100 nM against ACK1, below 10 nM against BMX and above 100 nM against Src.

For `Cc1ccc(NC(=O)c2cc(N3CCOCC3)cc(C(F)(F)F)c2)cc1N1Cc2cnc(N)nc2C2(CC2)C1=O` [Compound 29, N-(3-(2'-amino-7'-oxo-5'H-spiro[cyclopropane-1,8'-pyrido[4,3-d]pyrimidine]-6'(7'H)-yl)-4-methylphenyl)-3-morpholino-5-(trifluoromethyl)benzamide], in the experiment on C4-2B, the GI50 lay in the range of 1000 to 5000 nM. The IC50 against ACK1 was 10 to 100 nM; against BMX, below 10 nM; against Src it was below 10 nM.

Take `COCCN(C)c1cc(C(=O)Nc2ccc(C)c(N3Cc4cnc(N)nc4C4(CC4)C3=O)c2)cc(C(F)(F)F)c1` [Compound 31, N-(3-(2'-amino-7'-oxo-5'H-spiro[cyclopropane-1,8'-pyrido[4,3-d]pyrimidine]-6'(7'H)-yl)-4-methylphenyl)-3-((2-methoxyethyl)(methyl)amino)-5-(trifluoromethyl)benzamide]: the concentration for 50% growth inhibition (GI50) with C4-2B is 1000 to 5000 nM. The results for the half-inhibitory concentration (IC50) against ACK1, against BMX and against Src were 10 to 100 nM, below 10 nM and 10 to 100 nM, respectively.

As for `Cc1ccc(NC(=O)c2cccc(C(F)(F)F)c2)cc1N1Cc2cnc(Nc3ccc(N4CCN(C)CC4)cc3)nc2C2(CC2)C1=O` [Compound 38, N-(4-methyl-3-(2'-((4-(4-methylpiperazin-1-yl)phenyl)amino)-7'-oxo-5'H-spiro[cyclopropane-1,8'-pyrido[4,3-d]pyrimidine]-6'(7'H)-yl)phenyl)-3-(trifluoromethyl)benzamide], the 50% growth inhibitory concentration (GI50) in the experiment with AsPC-1, in the experiment on SW620, in the experiment on SW480 and in the experiment with HCT-116 was below 1000 nM throughout.

In the case of `Cc1ccc(NC(=O)c2cccc(C(F)(F)F)c2)cc1N1Cc2cnc(Nc3ccc(CN4CCN(C)CC4)cc3)nc2C2(CC2)C1=O` [Compound 43, N-(4-methyl-3-(2'-((4-((4-methylpiperazin-1-yl)methyl)phenyl)amino)-7'-oxo-5'H-spiro[cyclopropane-1,8'-pyrido[4,3-d]pyrimidine]-6'(7'H)-yl)phenyl)-3-(trifluoromethyl)benzamide], the 50% growth inhibitory concentration (GI50) in the experiment with AsPC-1 and in the experiment on HCT-116 was below 1000 nM each time.
